Source: patent US20220023294A1, “SYNTHETIC LETHALITY AND THE TREATMENT OF CANCER” (PACYLEX PHARMACEUTICALS INC., priority 2011, published 2022)

Legend:
NMT1 = target: T1, NMT1 (Homo sapiens, UniProt P30419); assay: In vitro NMT activity (peptide myristoylation) assay with purified recombinant enzyme; format: biochemical; conditions: purified recombinant NMT1, radiolabeled myristoyl peptide on phosphocellulose paper
T1 construct: His (N); made in house
T1 sequence (P30419 1-496): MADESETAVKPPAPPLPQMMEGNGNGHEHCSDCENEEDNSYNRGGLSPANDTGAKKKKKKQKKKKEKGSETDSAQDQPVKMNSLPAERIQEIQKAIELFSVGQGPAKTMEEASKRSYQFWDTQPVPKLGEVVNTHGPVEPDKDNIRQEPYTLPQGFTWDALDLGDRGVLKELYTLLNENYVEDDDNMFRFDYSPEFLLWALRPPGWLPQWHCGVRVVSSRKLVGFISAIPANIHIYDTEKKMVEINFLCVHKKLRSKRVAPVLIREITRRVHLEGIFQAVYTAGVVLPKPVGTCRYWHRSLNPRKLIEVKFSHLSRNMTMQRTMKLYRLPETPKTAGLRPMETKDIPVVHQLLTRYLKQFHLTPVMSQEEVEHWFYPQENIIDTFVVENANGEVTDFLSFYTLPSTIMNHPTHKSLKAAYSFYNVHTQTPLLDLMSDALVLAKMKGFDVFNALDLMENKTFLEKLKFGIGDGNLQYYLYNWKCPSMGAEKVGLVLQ
Excerpt: (§1) N-myristoyltransferase activity assay protocol was adapted from Raju, R. V., and Sharma, R. K. (1999) Preparation and assay of myristoyl-CoA:protein N-myristoyltransferase. Methods Mol Biol 116, 193-211. [^3H] myristoyl-CoA was freshly synthesized for each experiment, as previously described by Towler, D., and Glaser, L. (1986) Protein fatty acid acylation: enzymatic synthesis of an N-myristoylglycyl peptide. Proc Nal Acad Sci USA 83, 2812-2816. Briefly, cells were resuspended in 0.25 M sucrose buffer (50 mM NaH2PO4, pH 7.4) and subjected to 2 rounds of sonication at level 6.0 on a Branson Sonicator. […] Discs were washed (washing buffer: 25 mM Tris buffer, pH 7.4) to remove the residual radioactivity ([^3H]-myristate and [^3H]-myristoyl-CoA) while [^3H]-myristoyl-peptide is retained on the phosphocellulose paper. Radioactivity was quantified by liquid scintillation counting and converted into pMol of myristoylated peptide (Raju, R. V., and Sharna, R. K. (1999) Preparation and assay of myristoyl-CoA:protein N-myristoyltransferase. Methods Mol Biol 116, 193-211
(§2) NMT activity was assayed using a peptide myristoylation assay with purified recombinant NMT1 and NMT2. NMT activity was calculated from the amount of radiolabeled myristoyl peptide produced and detected on phosphocellulose paper (adapted from King et al. 1991, Anal Biochem.).

NMT2 = target: T2, NMT2 (Homo sapiens, UniProt O60551); assay: as above; format: biochemical; conditions: purified recombinant NMT2, radiolabeled myristoyl peptide on phosphocellulose paper
T2 construct: His (N); made in house
T2 sequence (O60551 1-498): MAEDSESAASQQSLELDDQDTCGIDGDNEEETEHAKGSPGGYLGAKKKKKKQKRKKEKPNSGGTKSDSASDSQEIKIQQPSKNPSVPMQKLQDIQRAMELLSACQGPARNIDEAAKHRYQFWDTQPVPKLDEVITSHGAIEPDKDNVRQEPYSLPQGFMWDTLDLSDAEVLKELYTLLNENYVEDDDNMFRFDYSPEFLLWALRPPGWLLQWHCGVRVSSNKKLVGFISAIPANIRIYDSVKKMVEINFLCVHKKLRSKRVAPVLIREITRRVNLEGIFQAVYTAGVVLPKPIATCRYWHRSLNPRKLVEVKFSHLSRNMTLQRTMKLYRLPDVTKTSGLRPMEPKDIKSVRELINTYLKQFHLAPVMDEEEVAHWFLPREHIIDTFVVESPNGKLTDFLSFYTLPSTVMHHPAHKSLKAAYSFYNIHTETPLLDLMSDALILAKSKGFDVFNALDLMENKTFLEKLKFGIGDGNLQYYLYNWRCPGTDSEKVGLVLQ
Excerpt: as §1, §2

[1] = tested on: B cell lymphomas and T cell leukemias; assay: Cell viability assay (trypan blue exclusion) after incubation with NMT inhibitors; format: cell-based, human; conditions: 24 h, increasing concentration, control adjusted to 100%
Description: Tris dibutylbenzinylidene acetone paladium (TrisDBA) was a kind gift of Dr. Arbiser. Cells were incubated at increasing concentrations for 24 hours with TrisDBA (or DMSO for control) or for 24 and 48 hours with DDD85646.
(§3) B and T cell viability was measured using the trypan blue exclusion method. Cells were grown in confluency conditions (2×10^6 cells/mL maximum) assuring the minimum basal apoptosis. After incubation with NMT inhibitors, about 20 000 cells (10 μL) were incubated with 10 μL of TC10™ Trypan Blue Dye (Biorad) for 15 min. Cell viability was quantified using the TC10™ automated cell counter (Biorad).
FIG. 2 depicts the sensitivity of various B cell lymphomas and T cell leukemias to the NMT inhibitors tris-dibenzylideneacetone-dipalladium (Tris-DBA). Various B and T cells were incubated for 24 h with increasing concentration of Tris DBA. Cell viability was measured using trypan blue exclusion method and adjusted to 100% for control.

Ramos B lymphoma cells = assay: Survival of Ramos cells transfected with pcDNA3.1-V5-NMT2 in the presence of TrisDBA (trypan blue exclusion); format: cell-based, human; conditions: TrisDBA 5 ug/ml, 24 hours
Description: B cells were transfected using the Neon® transfection system (Life technologies) following manufacturer's instructions and optimized protocol for Ramos B cells transfection (pulse voltage 1,300V; pulse width 20 ms, 2 pulses and 7.7.10^6 cells/mL) adapted for 100 μL tips. Classically, two transfections were pulled to obtained enough living cells to perform a viability assay.
as §3
In this example, transfection of Ramos B lymphoma cells (which, as shown herein, expresses NMT1) with pcDNA3.1-V5-NMT2 increased survival to TrisDBA (5 ug/ml) 2.5 fold vs control cells transfected with empty plasmid vector. In FIG. 6, 20×10^6 Ramos B lymphoma cells were transfected with 32 μg of DNA (pcDNA3.1-V5-empty or pcDNA3.1-V5-NMT2) using the Neon Transfection System (Invitrogen) following the recommended protocol for Ramos cell line (1,350 Volt, 30 ms). […] After a PBS wash, cells were resuspended and grown in RPMI containing TrisDBA (5 ug/ml) for 24 hours then counted using the trypan blue exclusion method (Panel A). […]

## tris-dibenzylideneacetone-dipalladium [Tris-DBA]
NMT1
  Inhibition of NMT activity: inhibits NMT in vitro
NMT2
  Inhibition of NMT activity: inhibits NMT in vitro
[1]
  Cell survival curves (sensitivity of B cell lymphomas versus other cells): more sensitive
Ramos B lymphoma cells
  Increased survival of NMT2-transfected cells vs control cells transfected with empty plasmid vector: 2.5 fold
